Test results: patent US20230310440A1, “RESPIRATORY STIMULANT NASAL FORMULATIONS” (Enalare Therapeutics Inc., priority 2022, published 2023)

How the values were obtained:
Format in all cases: physicochemical
[1] = Stability as a function of pH, narrow range (pH 2-3.6, ~10 mM citric acid and glycine buffers, 1 mg/mL); conditions: Target pH 2.0; 40° C. Storage 4 wk; listed as Cmp. A
Procedure: Accordingly, the stability of the compound was evaluated in the pH range 2-3.6.
Methodology: Buffer solutions containing ˜10 mM each of citric acid and glycine in the pH range 2-3.6 were prepared by titrating 250 mL of a single stock containing both buffer agents with 1N NaOH/1N HCl and removing 50 mL aliquots at predetermined pH values. Solutions at 1 mg/mL were prepared in the buffers by dissolving ˜25 mg of compound in ˜23 mL of a given buffer, adjusting the pH to the target and making up the volume to 25.0 mL in a volumetric flask.
Each of the buffered solutions was filtered through a […] polyether sulfone syringe filter into a volumetric flask previously rinsed with 70% ethanol and dried in a laminar flow hood. Following filtration, each buffered solution was split into 9 aliquots in 5 mL serum vials previously rinsed with 70% ethanol and dried in a laminar flow hood. Filtration and preparation of aliquots were performed in a laminar flow hood. Of the nine aliquots, three aliquots were stored at each 40° C. and 60° C., two aliquots were stored at 25° C. and one aliquot was submitted for T0 testing. Samples were evaluated for pH, assay and related substances at TO and, following 1 week, 2 weeks and 4 weeks of storage at 40° C. and 60° C. Samples stored at 25° C. served as controls to be analyzed if necessary. […]

[2] = Drug substance stability (API in closed Type I glass vials at 40° C. and 60° C.)
Procedure: Methodology: Approximately 100 mg of the API (Lot 009M9B058) were stored at each of 40° C. and 60° C. in closed Type I glass vials. Samples were analyzed for appearance and percent purity at T0 and after 1 week, 2 weeks and 4 weeks of storage.
Visually, there were no signs of degradation (i.e. discoloration etc.).

[3] = pH solubility study (100 mM citric acid, titrated with NaOH, shaken overnight at room temperature, filtered, HPLC); conditions: for Cmp. A.H2SO4 Concentration: no excess solid, not saturation solubility
Procedure: A pH solubility study was performed to assess the feasibility of formulating a compound having Formula (I) as a simple buffered solution at a reasonable pH for a nasal formulation.
Methodology: A compound having Formula (I) and H2SO4 solution of concentration ˜107 mg/mL in 100 mM citric acid at pH 2.5 was prepared. About 150 μL aliquots of this solution were transferred into 6 separate glass HPLC vials. All the samples, including the solution at pH 2.5, were shaken overnight at room temperature using a gyratory shaker. After shaking, the samples were evaluated visually for the presence of precipitate and were then spin filtered through 0.45 μm syringe tip filters (4 mm diameter) at 3000 rpm for 20 min. The final pH values of the filtrates were measured. The filtrates were then diluted appropriately and analyzed for compound having Formula (I). H2SO4 concentration using the HPLC assay.
Results: The pH values of the samples prior to and after shaking overnight, appearance as well as concentrations of samples are shown in Table 12.

| Assay [1] | Stability of the API on storage (in words) ([2]; 4 weeks, even at 60° C.) | Purity (%) ([2]; 40° C., T = 1 week) | Purity (%) ([2]; 40° C., T = 2 week) | Purity (%) ([2]; 40° C., T = 4 week) | Purity (%) ([2]; 60° C., T = 1 week) | Purity (%) ([2]; 60° C., T = 2 week) | Purity (%) ([2]; 60° C., T = 4 week) | Purity (%) ([2]; T = 0) | Final pH after Shaking and Filtration ([3]; Target pH 2.5, Initial pH 2.51) | Cmp. A.H2SO4 Concentration ([3]; Target pH 2.5, Initial pH 2.51) [mg/mL] | Final pH after Shaking and Filtration ([3]; Target pH 3.0, Initial pH 3.05) | Cmp. A.H2SO4 Concentration ([3]; Target pH 3.0, Initial pH 3.05) [mg/mL] | Final pH after Shaking and Filtration ([3]; Target pH 3.5, Initial pH 3.51) | Cmp. A.H2SO4 Concentration ([3]; Target pH 3.5, Initial pH 3.51) [mg/mL] | Final pH after Shaking and Filtration ([3]; Target pH 4.0, Initial pH 4.00) | Final pH after Shaking and Filtration ([3]; Target pH 4.5, Initial pH 4.55) | Final pH after Shaking and Filtration ([3]; Target pH 5.0, Initial pH 4.93) | Final pH after Shaking and Filtration ([3]; Target pH 5.5, Initial pH 5.63) | SMILES |
| --- | --- | --- | --- | --- | --- | --- | --- | --- | --- | --- | --- | --- | --- | --- | --- | --- | --- | --- | --- |
| 0956 | – | – | – | – | – | – | – | – | – | – | – | – | – | – | – | – | – | – | CCCNc1nc(NCCC)nc(N(C)OC)n1 [Compound A, N-(4,6-Bis-n-propylamino-[1,3,5]triazin-2-yl)-O,N-dimethyl-hydroxylamine] |
| – | quite stable | 99.92 | 99.90 | 100.00 | 99.76 | 100.00 | 100.00 | 100.00 | 2.42 | 104.1 | 3.00 | 99.8 | 3.51 | 101.6 | 3.79 | 4.37 | 4.52 | 5.02 | CCCNc1nc(NCCC)nc(N(C)OC)n1 [Cmp. A.H2SO4, N-(4,6-Bis-n-propylamino-[1,3,5]triazin-2-yl)-O,N-dimethyl-hydroxylamine] |
